Tested on: human breast cancer ZR-75-1 cell xenograft tumor
Experiment: Anti-tumor effect in ER+KAT6high breast cancer cell xenograft tumor model (Test Example 5)
Type: in vivo, Balb/c nude mice
Settings: for T/C / TGI / mean tumor volume: day 35; for body weight changes compared to the PF-8144 group: all doses (0.01, 0.1, 2 mg/kg)
Experimental: Test Example 5: Anti-Tumor Effects of Test Compounds in ER^+KAT6^high Breast Cancer Cell-Xenograft Tumor Model
Assay method: ZR-75-1 cells were subcutaneously inoculated into the right back of each mouse to evaluate the efficacy of the compounds in the subcutaneous xenograft tumor model of ZR-75-1 cells.
• 1. Cell culture: ZR-75-1 cells were cultured as a monolayer in vitro under the following culture conditions: an RPMI 1640 medium supplemented with 10% fetal bovine serum and 1% Anti-anti (Antibiotic-Antimycotic), incubated in an incubator at 37° C. with 5% CO2. The cells were digested with trypsin-EDTA twice a week for passaging as per conventional practice. When the cell saturation reached 80%-90% and the quantity met the requirement, the cells were harvested, counted, and inoculated. • 2. Animals: Balb/c nude mice, female, 6-8 weeks old, weighing 18-22 g. A total of 128 mice were required (80 mice were enrolled). They were provided by Vital River. • 3. Tumor inoculation: Two days before tumor inoculation, 17-beta estradiol tablets (0.18 mg) were subcutaneously administered, and 10 million ZR-75-1 tumor cells+matrigel (total […]) were subcutaneously inoculated into the right back of each mouse. When the mean tumor volume reached about 137 mm^3, the mice were grouped for administration. • 4. Experimental administration: The compounds were dissolved in 5% DMSO+5% Tween 80+90% Saline, and administered intragastrically (PO) daily for five weeks. • 5. Experimental indicators: The experimental indicators were to investigate whether the tumor growth was inhibited or delayed or the tumor was cured. Tumor diameters were measured twice weekly using a vernier caliper. The tumor volume was calculated using the following formula: V=0.5a×b^2, where a and b represent the long diameter and short diameter of the tumor, respectively. • 6. The anti-tumor efficacy of the compounds was evaluated by TGI (%) or relative tumor proliferation rate T/C (%). TGI (%) refers to the tumor growth inhibition rate. Calculation of TGI (%):TGI (%)=[(1−(mean tumor volume at the end of administration in a treatment group—mean tumor volume at the start of administration in the treatment group))/(mean tumor volume at the end of treatment in the solvent control group—mean tumor volume at the start of treatment in the solvent control group)]×100%. The calculation formula for the relative tumor proliferation rate T/C (%) was as follows: T/C %=TRTV/CRTV×100% (TRTV:RTV of the treatment group; CRTV:RTV of the negative control group). The relative tumor volume (RTV) was calculated based on the tumor measurement results using the following formula: RTV=Vt/V0, where V0 represents the mean tumor volume measured at the time of grouping for administration (i.e., PG-D0), and Vt represents the mean tumor volume at a certain measurement. TRTV and CRTV were derived from data measured on the same day.
The mean and standard error of mean (SEM) of tumor volume at each time point for each group were included. The differences in tumor volume and tumor weight among the groups were statistically analyzed. For comparisons among three or more groups, one-way ANOVA was used for analysis. […] The analysis was performed using SPSS 17.0, and p<0.05 was considered to indicate a significant difference.
For comparisons between different doses of the same drug or different drugs at the same dose, two-way ANOVA was used for analysis, and the Bonferroni method was applied for testing. The analysis was performed using GraphPad Prism 9.0, and p<0.05 was considered to indicate a significant difference. On day 35 after the start of administration, the data between different doses of the same drug or different drugs at the same dose were analyzed using one-way ANOVA. […] The analysis was performed using SPSS 17.0, and p<0.05 was considered to indicate a significant difference.

SMILES	T/C (0.01 mg/kg PO QD) [%]	TGI (0.01 mg/kg PO QD) [%]	mean tumor volume (0.01 mg/kg PO QD)	efficacy compared to PF-8144 (0.1 mg/kg PO QD)	T/C (0.1 mg/kg PO QD) [%]	TGI (0.1 mg/kg PO QD) [%]	mean tumor volume (0.1 mg/kg PO QD) [mm^3]	T/C (2 mg/kg PO QD) [%]	TGI (2 mg/kg PO QD) [%]	mean tumor volume (2 mg/kg PO QD) [mm^3]	body weight changes compared to the PF-8144 group
COc1ccc2c(c1S(=O)(=O)Nc1noc3cc(Cn4cccn4)c(F)c(OC)c13)OCCO2 [Compound 28, N-(6-((1H-Pyrazol-1-yl)methyl)-5-fluoro-4-methoxybenzo[d]isoxazol-3-yl)-6-methoxy-2,3-dihydrobenzo[b][1,4]dioxine-5-sulfonamide]	76.14	30.94	1,017 mm^3	significantly superior in efficacy to PF-8144	11.36	98.07	162	0.84	109.69	12	no statistically significant difference
COc1ccc2c(c1S(=O)(=O)Nc1noc3cc(Cn4cccn4)c(F)c(OC)c13)OCC=C2 [Compound 101, N-(6-((1H-Pyrazol-1-yl)methyl)-5-fluoro-4-methoxybenzo[d]isoxazol-3-yl)-7-methoxy-2H-chromene-8-sulfonamide]	19.06	89.81	264 mm^3	significantly superior in efficacy to PF-8144	1.79	108.64	25	0.96	109.56	14	no statistically significant difference
COc1ccccc1S(=O)(=O)Nc1noc2cc(Cn3cccn3)cc(OC)c12 [PF-8144, reference compound]	72.71	30.19	1,035 mm^3	–	40.77	65.53	580	2.51	107.85	36	–
